Patent US20080262080A1, “Allergy Suppressive Agent” (KYUSHU UNIVERSITY, NATIONAL UNIVERSITY CORPORATION, priority 2004, published 2008)

Experiments:
[1] = system: FcεRI α- and γ-chains mRNA; assay: FcεRI mRNA expression in human peripheral blood basophils (RT-PCR); assay type: cell-based; conditions: 25 µM of chrysin, 24 hours, vs DMSO
Description: Peripheral blood basophils (1×10^6 cells/mL) collected from the vein of a donor were incubated in a medium comprising 25 µM of chrysin or dimethyl sulfoxide (DMSO) for 24 hours. Then, RNA was extracted and the mRNA expression level of each of the FcεRI α- and γ-chains was examined by the RT-PCR method. Venous blood was collected from the forearm elbow of a donor. Then, peripheral blood lymphocytes were separated and purified using Lymphocyte Separation Medium (ICN Biomedical Inc.) and peripheral basophils were separated and purified by the density gradient centrifugation method using Percoll (Amersham Biosciences). The basophils (1×10^6 cells/mL) were incubated in 5% FCS-RPMI 1640 medium, to which 25 µM of chrysin or a solvent dimethylsulfoxide (DMSO) had been added, for 24 hours. RNA was extracted and the mRNA expression levels of FcεRI α- and γ-chains were examined by the RT-PCR method as in Example 1.

KU812 cells = assay: A23187-induced histamine release from human basophil cell line KU812; assay type: cell-based; conditions: 25 μM of chrysin, 5 μM A23187, vs control free from chrysin
Description: Human basophil cell line KU812 cells (5×10^6 cells/mL) were incubated in Tyrode buffer comprising 1 mM of CaCl2, to which 25 μM of chrysin had been added, and then stimulated with A23187. Histamine released from the cells and histamine cumulated in the cells were quantified to thereby determine the histamine release rate. Comparison was made with a control system free from chrysin.
Human basophil cell line KU812 cells (5×10^5 cells/mL) were incubated in Tyrode buffer (137 mM NaCl, 2.7 mM KCl, 1.8 mM CaCl2, 1.1 mM MgCl2, 1.19 mM NaHCO3, 0.4 mM NaH2PO4, pH 7.4) comprising 25 μM of chrysin and 1 mM of CaCl2 for 20 min at 37° C. After adding 5 μM of A23187 (Sigma Chemical Co.), the incubation was continued for an additional 20 min at 37° C. […] In a sample for quantifying histamine cumulated in cells, the cells were centrifuged at 300×g for 5 min, ultrasonically disrupted for about 1 min and then centrifuged at 12,000×g for 5 min and 1 mL of the supernatant was collected. To perform fluorescence measurement under alkaline conditions, a complex of histamine and o-phthaldehyde (Wako) was formed and partly extracted. […] The fluorescent intensity was measured using a fluorophotometer RF-1500 at an excitation wavelength of 360 nm and a fluorescent wavelength of 450 nm.

FcεRI α- and γ-chains = assay: Expression levels of the proteins constituting FcεRI (α- and γ-chains) in KU812 cells, immunoprecipitation and blotting; assay type: cell-based, human; conditions: serum-free, 6 hours, β-actin control
Description: The expression of each of the FcεRI α- and γ-chains was detected by collecting cells having been incubated by adding chrysin, lysing the cells, conducting immunoprecipitation, subjecting the immunoprecipitate to DS-PAGE and then blotting. β-Actin was employed as a control.
KU812 cells (1×10^6 cells/mL) were incubated under serum-free conditions in RPMI 1640 medium, to which chrysin had been added, for 6 hours. After incubating, the cells were washed with PBS once and then lysed by shaking together with Lysis buffer (composition: 50 mM Tris-HCl pH 7.5, 1% Triton X-100, 150 mM NACl, 1 mM EDTA, 50 mM NaF, 30 mM Na4P2O7, 1 mM PMSF, 2 μg/mL aprotinin, 1 mM pervandate) at 4° C. for 30 min. Subsequently, the mixture was centrifuged at 12,000×g for 10 min at 4° C. to precipitate insoluble matters. The supernatant was collected and proteins were quantified. The samples were diluted with Lysis buffer so that all of them had the same protein concentration, thereby giving lysate samples.
Protein A Sepharose beads (Amersham Pharmacia Biotech) were shaken in Lysis buffer (composition: 50 mM Tris-HCl pH 7.5, 150 mM NACl, 1% Triton X-100, 1 mM EDTA, 50 mM NaF, 30 mM Na4P2O7, 1 mM PMSF, 2 μg/mL aprotinin), to which CRA-1 antibody had been added to give a final concentration of 1 μg/mL, for 2 to 4 hours at 4° C. so as to allow the beads to adsorb CRA-1 antibody. […]

Compound: O=c1cc(-c2ccccc2)oc2cc(O)cc(O)c12 [Chrysin, 5,7-dihydroxyflavone]
- FcεRI α-chain mRNA expression level [1]: strongly lowered
- FcεRI γ-chain mRNA expression level [1]: lowered
- histamine release induced by A23187 (KU812 cells): significantly lowered
- expression of the proteins constituting FcεRI (α- and γ-chains) (FcεRI α- and γ-chains): suppressive effect
